According to PMC10425983 (ACS Infectious Diseases, 2023):

What was measured:
[1] = target: hERG (Homo sapiens, UniProt Q12809); experiment: hERG channel blockage; type: biochemical; conditions: hERG pIC50
[2] = MDCK-wt permeability assay; type: in vitro ADME, canine; conditions: dog
[3] = target: CYP3A4 (Homo sapiens, UniProt P08684); experiment: CYP inhibition CYP3A4; type: in vitro ADME; conditions: inhibitor class in words
[4] = target: CYP2D6 (Homo sapiens, UniProt P10635); experiment: CYP inhibition CYP2D6; type: in vitro ADME; conditions: inhibitor class in words
CYP2D6, sequence (P10635 whole entry): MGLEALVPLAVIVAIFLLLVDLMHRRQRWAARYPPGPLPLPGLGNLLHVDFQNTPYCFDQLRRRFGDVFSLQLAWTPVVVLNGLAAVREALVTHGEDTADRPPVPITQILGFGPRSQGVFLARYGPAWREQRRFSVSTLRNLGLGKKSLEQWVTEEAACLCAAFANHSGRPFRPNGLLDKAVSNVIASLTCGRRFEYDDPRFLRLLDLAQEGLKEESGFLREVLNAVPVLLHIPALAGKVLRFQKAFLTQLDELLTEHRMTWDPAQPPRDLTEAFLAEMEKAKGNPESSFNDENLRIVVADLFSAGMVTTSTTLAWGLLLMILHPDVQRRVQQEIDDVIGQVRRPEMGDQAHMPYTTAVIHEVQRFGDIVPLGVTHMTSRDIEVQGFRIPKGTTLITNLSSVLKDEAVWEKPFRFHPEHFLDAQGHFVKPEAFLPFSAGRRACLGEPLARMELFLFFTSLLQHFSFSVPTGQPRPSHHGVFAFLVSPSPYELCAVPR

[5] = tested on: L. infantum (MHOM/MA(BE)/67/ITMAP263) amastigotes; experiment: L. infantum intramacrophage amastigote assay; type: cell-based, Leishmania infantum; conditions: for EC50: Leishmania infantum, 120 h, read-out: L.inf pEC50 (converted); for SI: ratio CC50 μM (PMM)/EC50 μM (L.inf)
[6] = Thermodynamic aqueous solubility; type: physicochemical
[7] = target: T1, CYP1A2 (Homo sapiens, UniProt P05177); experiment: CYP inhibition CYP1A2; type: in vitro ADME
T1 sequence (P05177 1-516): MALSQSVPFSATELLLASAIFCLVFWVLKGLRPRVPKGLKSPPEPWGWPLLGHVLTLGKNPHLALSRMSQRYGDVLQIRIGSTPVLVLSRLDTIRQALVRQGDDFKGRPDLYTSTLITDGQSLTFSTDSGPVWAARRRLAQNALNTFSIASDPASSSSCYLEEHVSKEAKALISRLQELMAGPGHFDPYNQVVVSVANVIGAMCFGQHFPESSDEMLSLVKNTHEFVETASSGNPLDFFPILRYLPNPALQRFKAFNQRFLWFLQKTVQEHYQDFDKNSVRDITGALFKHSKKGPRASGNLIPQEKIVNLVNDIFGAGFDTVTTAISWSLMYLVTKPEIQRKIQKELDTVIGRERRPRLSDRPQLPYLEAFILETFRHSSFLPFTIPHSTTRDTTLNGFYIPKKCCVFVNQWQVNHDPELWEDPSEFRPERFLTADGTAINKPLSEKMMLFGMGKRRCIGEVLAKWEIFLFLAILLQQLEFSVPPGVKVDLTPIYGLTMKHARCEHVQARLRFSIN

[8] = Rat hepatocyte intrinsic clearance; type: in vitro ADME; conditions: rat, rat hepatocytes
[9] = target: CYP2C19 (Homo sapiens, UniProt P33261); experiment: CYP inhibition CYP2C19; type: in vitro ADME
CYP2C19, sequence (P33261 whole entry): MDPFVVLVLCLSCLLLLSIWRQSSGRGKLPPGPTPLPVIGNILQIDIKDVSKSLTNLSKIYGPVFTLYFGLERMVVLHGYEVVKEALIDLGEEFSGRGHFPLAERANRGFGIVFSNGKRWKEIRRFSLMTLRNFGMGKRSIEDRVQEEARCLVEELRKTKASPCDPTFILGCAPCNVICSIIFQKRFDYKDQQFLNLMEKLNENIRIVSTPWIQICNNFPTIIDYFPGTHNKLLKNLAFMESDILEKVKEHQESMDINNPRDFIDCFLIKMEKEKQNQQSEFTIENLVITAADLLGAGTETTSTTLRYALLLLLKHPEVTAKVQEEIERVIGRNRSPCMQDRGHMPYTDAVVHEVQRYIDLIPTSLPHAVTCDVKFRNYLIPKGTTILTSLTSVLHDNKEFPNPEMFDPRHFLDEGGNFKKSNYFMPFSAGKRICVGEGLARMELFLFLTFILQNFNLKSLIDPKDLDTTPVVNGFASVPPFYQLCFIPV

[10] = target: CYP2C9 (Homo sapiens, UniProt P11712); experiment: CYP inhibition CYP2C9; type: in vitro ADME
CYP2C9, sequence (P11712 whole entry): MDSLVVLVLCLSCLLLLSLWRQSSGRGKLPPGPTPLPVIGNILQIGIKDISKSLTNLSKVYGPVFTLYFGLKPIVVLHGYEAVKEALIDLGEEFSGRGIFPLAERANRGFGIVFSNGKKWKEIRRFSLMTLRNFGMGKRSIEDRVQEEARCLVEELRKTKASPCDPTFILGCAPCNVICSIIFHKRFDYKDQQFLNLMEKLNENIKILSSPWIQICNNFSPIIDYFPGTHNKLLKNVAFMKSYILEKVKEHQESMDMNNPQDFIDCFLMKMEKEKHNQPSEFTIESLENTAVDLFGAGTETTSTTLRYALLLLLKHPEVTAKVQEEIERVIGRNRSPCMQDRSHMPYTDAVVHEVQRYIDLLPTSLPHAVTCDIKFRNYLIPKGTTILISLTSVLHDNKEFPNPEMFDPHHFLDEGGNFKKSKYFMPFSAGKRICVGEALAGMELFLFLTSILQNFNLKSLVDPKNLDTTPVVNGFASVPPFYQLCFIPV

[11] = Cytotoxicity toward primary peritoneal mouse macrophages; type: cell-based; conditions: Swiss, mouse, primary peritoneal mouse macrophages (PMM), PMM pCC50, primary mouse macrophages; highest in-test concentration 64 μM
[12] = Human liver microsome intrinsic clearance; type: in vitro ADME; conditions: human, human liver microsomes, pH 7.4, HLM clint
[13] = target: T2, CYP2C8 (Homo sapiens, UniProt P10632); experiment: CYP inhibition CYP2C8; type: in vitro ADME
T2 sequence (P10632 1-490): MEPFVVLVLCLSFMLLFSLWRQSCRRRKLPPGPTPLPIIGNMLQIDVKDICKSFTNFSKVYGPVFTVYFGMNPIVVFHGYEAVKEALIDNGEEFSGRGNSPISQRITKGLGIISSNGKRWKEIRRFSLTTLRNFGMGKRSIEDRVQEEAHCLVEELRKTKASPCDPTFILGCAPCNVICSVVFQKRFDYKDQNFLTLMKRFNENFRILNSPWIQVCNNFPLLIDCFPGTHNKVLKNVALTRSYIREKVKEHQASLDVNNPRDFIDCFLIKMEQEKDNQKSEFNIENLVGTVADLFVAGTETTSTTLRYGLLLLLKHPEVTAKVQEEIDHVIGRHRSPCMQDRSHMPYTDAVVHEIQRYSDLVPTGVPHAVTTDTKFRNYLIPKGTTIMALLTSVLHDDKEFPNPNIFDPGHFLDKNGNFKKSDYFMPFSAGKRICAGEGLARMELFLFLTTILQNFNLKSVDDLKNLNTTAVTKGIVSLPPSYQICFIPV

[14] = tested on: primary peritoneal mouse macrophages (PMM); experiment: Cytotoxicity toward primary peritoneal mouse macrophages; type: cell-based; conditions: primary mouse macrophages; highest in-test concentration 64 μM

hERG, sequence (Q12809 whole entry): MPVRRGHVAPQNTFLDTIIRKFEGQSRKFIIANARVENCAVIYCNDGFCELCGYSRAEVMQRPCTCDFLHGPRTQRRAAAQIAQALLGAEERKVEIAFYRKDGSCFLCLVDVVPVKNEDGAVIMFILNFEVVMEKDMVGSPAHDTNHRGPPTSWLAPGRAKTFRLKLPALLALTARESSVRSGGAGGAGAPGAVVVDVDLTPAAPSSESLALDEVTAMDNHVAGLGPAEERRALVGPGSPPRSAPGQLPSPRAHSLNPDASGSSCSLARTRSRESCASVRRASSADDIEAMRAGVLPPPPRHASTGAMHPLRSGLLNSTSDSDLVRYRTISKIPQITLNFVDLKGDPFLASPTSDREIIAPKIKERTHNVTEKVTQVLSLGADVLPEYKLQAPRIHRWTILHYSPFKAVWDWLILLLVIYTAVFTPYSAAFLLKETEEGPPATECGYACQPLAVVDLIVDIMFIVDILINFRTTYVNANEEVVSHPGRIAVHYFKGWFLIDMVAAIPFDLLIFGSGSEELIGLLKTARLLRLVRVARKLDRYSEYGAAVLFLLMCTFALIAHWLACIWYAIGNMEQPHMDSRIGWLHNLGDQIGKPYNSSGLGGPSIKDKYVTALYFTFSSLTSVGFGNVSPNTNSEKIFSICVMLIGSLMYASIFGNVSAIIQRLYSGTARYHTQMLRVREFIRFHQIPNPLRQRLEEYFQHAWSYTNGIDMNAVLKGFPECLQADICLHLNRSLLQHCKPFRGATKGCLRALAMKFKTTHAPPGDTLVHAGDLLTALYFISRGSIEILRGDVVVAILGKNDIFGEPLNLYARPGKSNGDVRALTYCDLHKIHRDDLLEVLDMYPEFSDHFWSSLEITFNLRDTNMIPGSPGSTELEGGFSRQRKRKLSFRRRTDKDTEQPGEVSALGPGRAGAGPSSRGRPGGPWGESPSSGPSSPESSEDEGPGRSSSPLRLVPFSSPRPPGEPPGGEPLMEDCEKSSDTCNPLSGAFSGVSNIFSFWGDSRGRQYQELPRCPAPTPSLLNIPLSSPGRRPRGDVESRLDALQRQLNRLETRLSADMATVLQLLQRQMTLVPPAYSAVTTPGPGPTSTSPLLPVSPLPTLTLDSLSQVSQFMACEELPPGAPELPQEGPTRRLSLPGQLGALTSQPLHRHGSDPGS
CYP3A4, sequence (P08684 whole entry): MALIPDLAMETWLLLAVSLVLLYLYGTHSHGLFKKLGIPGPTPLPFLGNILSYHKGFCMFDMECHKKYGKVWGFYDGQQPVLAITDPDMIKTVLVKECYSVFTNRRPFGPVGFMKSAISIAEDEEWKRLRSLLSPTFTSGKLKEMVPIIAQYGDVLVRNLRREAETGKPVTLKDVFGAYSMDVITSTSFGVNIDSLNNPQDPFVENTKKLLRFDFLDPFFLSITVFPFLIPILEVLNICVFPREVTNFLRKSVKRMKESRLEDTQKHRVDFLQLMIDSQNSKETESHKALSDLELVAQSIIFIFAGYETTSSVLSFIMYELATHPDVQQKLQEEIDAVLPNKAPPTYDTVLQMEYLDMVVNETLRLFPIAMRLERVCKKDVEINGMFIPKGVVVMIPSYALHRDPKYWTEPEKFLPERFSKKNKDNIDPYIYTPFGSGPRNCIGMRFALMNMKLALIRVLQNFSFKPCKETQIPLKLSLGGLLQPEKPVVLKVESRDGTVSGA

| Papp A→B at 2 h, 10 µM [2] [×10⁻⁶ cm/s] | CYP3A4 inhibition, classification [3] | CYP2D6 inhibition, classification [4] | EC50 [5] [µM] | aq. sol. [6] [µM] | IC50 [7] [µM] | CYP1A2 inhibition, classification ([7]; inhibitor class in words) | hepatocyte CLint [8] [µL/min/1e6 cells] | IC50 [9] [µM] | CYP2C19 inhibition, classification ([9]; inhibitor class in words) | IC50 [10] [µM] | CYP2C9 inhibition, classification ([10]; inhibitor class in words) | microsomal CLint at 3 µM [12] [µL/min/mg] | IC50 [13] [µM] | CYP2C8 inhibition, classification ([13]; inhibitor class in words) | Structure (SMILES) | IC50 [1] [µM] | SI [5] | CC50 at 5 days [11] [µM] | PMM pCC50 [14] |
| --- | --- | --- | --- | --- | --- | --- | --- | --- | --- | --- | --- | --- | --- | --- | --- | --- | --- | --- | --- |
| 16.7 | moderate inhibition | moderate inhibition | 6.31 | 0.7 | 0.59 | strong inhibitor | 148 | 1.8 | moderate inhibitor | 0.76 | strong inhibitor | 91.6 | 4.9 | moderate inhibitor | Fc1ccc(Nc2c(-c3ccccn3)nc3ccc(C4CC4)cn23)cc1 [Compound 3p, 6-Cyclopropyl-N-(4-fluorophenyl)-2-(pyridin-2-yl)imidazo[1,2-a]pyridin-3-amine] | 12.6 | 1 | 7.94 |  |
|  |  |  | 3.98 | 8 |  |  | > 300 |  |  |  |  | 137 |  |  | Fc1ccc(Nc2c(-c3ccccn3)nc3ccccn23)cc1 [Compound 3a, N-(4-Fluorophenyl)-2-(pyridin-2-yl)imidazo[1,2-a]pyridin-3-amine] |  | 16 |  | < 4.2 |
